Consider 12 molecules from patent US20020177592A1, “Combination of adrenergic agonist and tricyclo-alkylamine for relieving chronic pain without adverse side effects” (priority 1998, published 2002).

For series [1], the target named is NMDA receptors. Conditions: concentration suppressing MK-801 binding by 50%, cited from earlier work.
Series [2] relates to NMDA receptors. The following applies: concentration giving complete protection of neurons against 200 μM NMA, cell culture; cited from earlier work.
Series [3] has as its system rats. Briefly: Sensorimotor battery (plank, walking initiation, platform, inclined screen, activity). The series is classed as in vivo, rat. Conditions: treatment regimens that proved effective for relieving neuropathic pain; 1 hour post-treatment. The protocol: Testing was done at 1 hour post-treatment, which corresponded with the time of peak effect of drugs on paw withdrawal latency. Briefly, the sensorimotor battery consisted of five tests (Wozniak et al 1990) that are known to be able to detect significant muscle weakness, incoordination, somnolence, or other behavioral impairments.
For all of the tests in this sensorimotor battery, all treatment groups first received a habituation trial, to allow each rat to acclimate to the test situation. In all tests, protective padding was placed under any elevated apparatuses, to prevent pain or injury from falling. The tests performed were as follows:
A rat was timed for how long it could remain on a wooden plank that is 3 cm wide, elevated 61 cm above the floor.
Each rat was placed in the middle of a square outlined by white cloth tape (50×50 cm) on a smooth black surface of a large table top, and was timed for how long was required for the rat to leave the square (place all four paws outside the square).
Each rat was timed for how long it could remain perched on an elevated (61 cm above the floor) platform of small dimensions (7.6×15.2 cm).
Each rat was placed in the middle of an elevated (61 cm above the floor) wire mesh grid (8 squares per 10 cm) which was inclined at 60 degrees with the floor. […]

Series [4] has as its system rats with sciatic nerve ligation. The experiment in a line: Sciatic nerve ligation model of neuropathic pain, paw lifting latency to thermal stimulus. The format is in vivo, rat. The text has this: In all experiments, one hind limb of the rat has undergone a surgical operation in which a loop (“ligature”) of suture material was placed around the sciatic nerve and gently tightened. Over the course of several days, this caused chronic irritation to the nerve, driving it into a “hyper-sensitized” condition of the type which occurs in damaged neuronal circuits that cause neuropathic pain in humans.
After the nerve ligation operation, a waiting period of 8 days elapsed, to allow the ligated limb to reach a peak of hypersensitized chronic irritation of the ligated sciatic nerve. This sciatic nerve model was first described by Bennet and Xie 1988, and is widely regarded as a useful animal model for studying neuropathic pain.
To test the degree of sensitivity in the ligated limb vs. the unoperated limb, a beam of light (thermal stimulus) is applied to the soles (i.e., the undersurface area which is not covered by fur) of the hind paws, by shining a focused beam of light onto the sole, through the glass floor of a testing chamber. This beam was sufficiently hot to generate some discomfort, without posing any risk of burning the paw. The number of seconds that elapsed after commencement of the thermal stimulus, until the rat lifted up the paw, were detected electronically and recorded automatically.
Each limb is tested initially for thermal pain sensitivity, before the ligation operation is performed (pre-surgery), to ensure that both limbs had the same degree of pain sensitivity. After 8 days following surgery, each limb was tested again, before any treatment was given (pre-treatment), to ensure that the nerve ligature successfully provoked a hyper-irritable condition in the ligated limb. After drug treatment (at time=0, on the graphs), each limb was tested for thermal pain sensitivity at hourly intervals, for 4 hours.
The first set of in vivo tests involved sciatic nerve ligation in rats, using procedures described in Bennett and Xie, Pain 33: 87-107 (1988). This test involves surgically placing and tightening a loop of suture material around the sciatic nerve in one hind leg of a rat; the other hind leg serves as a control. Within about a week, the ligated sciatic nerve becomes irritated and reaches a hyper-responsive “kindled” state, where it will respond rapidly to even a mild stimulus that is not painful to an untampered leg. As such, it offers a model of what happens in pain pathways that have become pathologically hypersensitized in a human suffering from neuropathic pain.
In these tests, on the 8th day after surgery, the rat is placed in a testing device which electronically measures how quickly or slowly it acts, in lifting up a paw in response to a standardized mild warming (thermal) stimulus. The warming stimulus is generated by a light beam which shines onto the bottom surface of the paw, through the glass floor of the testing enclosure. The device is electronically controlled and automated, and measurements are made of the number of seconds that elapse after the light beam begins to shine on the bottom of the paw, until the rat lifts its paw.
To establish baseline values for pain sensitivity of each limb in each group of animals, each limb was tested initially for thermal pain sensitivity before the ligation operation was performed (pre-surgery). After 8 days, each limb was again tested before any drug treatment was administered (shown by the “pre-treatment” legend in all graphs). After drug administration, each limb was tested for thermal pain sensitivity at hourly intervals, for 4 hours.
Saline controls and all drugs were administered by intraperitoneal (IP) injection, i.e., hypodermic injection into the abdominal region. This is a convenient and reliable method of drug administration, for tests involving rats.
The test results are shown graphically in the Figures; each circle indicates the mean value, and the vertical bars show the standard error of the mean (SEM). […]

For series [5], the system named is rats. The following applies: from 0.5 hr after treatment for 1 hr.
Description: To address these issues, rats with sciatic nerve ligations, and rats with only sham sciatic nerve ligations, were treated with various doses of ethopropazine, clonidine, or the two agents together. They were then evaluated, using the following battery of sensorimotor and activity tests:
(5) One Hour Activity Level.
Locomotor activity was evaluated beginning at 0.5 hr following drug treatment, and lasting for 1 hr. In this test, the rat was placed in a cage equipped with three pairs of photoelectric cells, placed at regular intervals across the width of the cage, so that the animal's activity was monitored by automatically recording the number of “beam breaks” registered as the animal moved about the cage.
Series [6] has as its system NMDA receptors. Briefly: Protection of neurons in cell culture against 200 μM NMA (Olney et al 1987). The following applies: ratio of protective concentrations. The series is classed as cell-based. The protocol: In Table 1, the “protective concentration” for each compound was the micromolar concentration of that compound which provided complete protection for neurons, in cell culture tests, against a 200 μM concentration of NMA (i.e., a racemic mixture of the D and L stereoisomers of N-methyl-aspartate; the D isomer, which makes up 50% of the racemic mixture, is highly toxic to neurons, while the L isomer is somewhat less toxic).

The mark [7] stands for this setting: clonidine alone, IP, 0.075 mg/kg.

What is called IC50 is the concentration that inhibits the measured activity by half.

Read-outs that look alike come from different tables or passages of the source.

As for `CNCCCN1c2ccccc2CCc2ccccc21` [Desipramine], the concentration for half-maximal inhibition (IC50) in series [1] is 7.41 ± 1.32 µM.
Regarding `OC(CCN1CCCCC1)(c1ccccc1)C1CCCCC1` (centres unmarked) [Trihexyphenidyl], the Protective concentration in series [2] is 125 µM.
As for `CNCCC=C1c2ccccc2CCc2ccccc21` [Nortriptyline], the IC50 in series [1] is 21 ± 0.67 µM.
With `CN1[C@@H]2C[C@@H](OC(=O)[C@H](CO)c3ccccc3)C[C@H]1[C@@H]1O[C@@H]12` [Scopolamine], the Protective concentration in series [2] was above 3000 µM.
Turning to `CCN(CC)C(C)CN1c2ccccc2Sc2ccccc21` (centres unmarked) [Ethopropazine], the “performance on sensorimotor tests” value in series [3] was “None of the ethopropazine or combined ethopropazine-plus-clonidine treatment regimens that proved effective for relieving neuropathic pain was associated with any impaired performance”. In series [4] (ethopropazine alone, FIGS. 2B and 2C (20 and 30 mg/kg), 2 and 3 hour testing times), the “paw lifting latency curves of ligated and control limbs” value is “both curves rose, substantially”. In addition, the “pain sensitivity (paw lifting latency)” value in series [4] (ethopropazine alone, IP, 50 mg/kg, FIG. 2D) is given as “significantly changed the level of pain sensitivity in the ligated limb”; in series [4] (ethopropazine alone, IP, 10 to 30 mg/kg, FIG. 2) it was “did not significantly change the pain sensitivity in either limb”. Also, the Protective concentration in series [2] is 25 µM. Moreover, the activity level entry in series [5] (ethopropazine alone, 50 mg/kg) was “significantly reduced activity level”.
In the case of `CN(C)CCCN1c2ccccc2Sc2ccc(Cl)cc21` [Chlorpromazine], the IC50 in series [1] was 45.9 ± 11.5 µM.
As to `CN(C)CCOC(c1ccccc1)c1ccccc1` [Diphenhydramine], the Protective concentration in series [2] was 250 µM.
Consider `OC(CCN1CCCC1)(c1ccccc1)C1CCCCC1` (centres unmarked) [Procyclidine], for which the Protective concentration in series [2] was 15 µM.
On to `CNC1(c2ccccc2Cl)CCCCC1=O` (centres unmarked) [Ketamine], for which, in series [6], the “potency relative to ethopropazine (times more potent)” value was found to be 5 times and the “potency relative to procyclidine (times more potent)” value came to 3 times. The IC50 in series [1] (comparator in text) was 1.02 ± 0.33 µM. Also, the Protective concentration in series [2] was 5 µM.
Turning to `c1ccc(C2(N3CCCCC3)CCCCC2)cc1` [phencyclidine], in series [6], the “potency relative to ethopropazine (times more potent)” value is listed as 50 times and the “potency relative to procyclidine (times more potent)” value was 30 times. In addition, the Protective concentration in series [2] was 0.5 µM.
For the molecule `OC(CCN1CCCCC1)(c1ccccc1)C1CC2C=CC1C2` (centres unmarked) [Biperiden], the Protective concentration in series [2] was 200 µM.
In the case of `Clc1cccc(Cl)c1N=C1NCCN1` [clonidine], the “relief of neuropathic pain” value in series [4] (clonidine alone, IP, 0.025 mg/kg and 0.05 mg/kg) was “no significant relief of neuropathic pain”; in series [4] (setting [7]), “significant and relatively sustained neuropathic pain relief”. Moreover, the sedation observed entry in series [4] (setting [7]) is listed as “significant sedation”. Further, the activity level entry is “reduce activity levels, but only slightly and to a barely significant degree” in series [5] (clonidine alone, 0.050 mg/kg); “substantially reduced activity levels” in series [5] (clonidine alone, 0.075 mg/kg).
